Measured values published in the NIST ThermoML archive (doi:10.1021/je900550v).

Conditions: 101.33 kPa, Liquid; for speed of sound: Pulse-echo method; for mass density: Vibrating tube method

CCC(=O)[O-].C[NH2+]CCO [2-hydroxy-N-methylethanaminium propionate]
Conditions	mass density [kg/m3]	speed of sound [m/s]	viscosity [mPa·s]
308.15 K	1064.8	1660.5	118
308.4 K	1064.63	1659.8	–
308.65 K	1064.46	1659	–
308.9 K	1064.3	1658.3	–
309.15 K	1064.14	1657.6	–
309.4 K	1063.97	1656.8	–
309.65 K	1063.81	1656.1	–
309.9 K	1063.64	1655.4	–
310.15 K	1063.48	1654.6	105.84
310.4 K	1063.31	1653.9	–
310.65 K	1063.15	1653.1	–
310.91 K	1062.98	1652.4	–
311.16 K	1062.82	1651.7	–
311.4 K	1062.65	1650.9	–
311.65 K	1062.49	1650.2	–
311.91 K	1062.33	1649.4	–
312.16 K	1062.16	1648.7	–
312.41 K	1061.99	1648	–
312.66 K	1061.83	1647.2	–
312.91 K	1061.66	1646.5	–
313.15 K	–	–	93.38
313.16 K	1061.5	1645.7	–
313.4 K	1061.33	1645	–
313.66 K	1061.17	1644.2	–
313.9 K	1061	1643.5	–
314.15 K	1060.84	1642.8	–
314.4 K	1060.67	1642	–
314.65 K	1060.5	1641.3	–
314.9 K	1060.34	1640.5	–
315.15 K	1060.17	1639.8	–
315.41 K	1060.01	1639	–
315.65 K	1059.84	1638.3	81.2
315.91 K	1059.67	1637.6	–
316.16 K	1059.51	1636.8	–
316.41 K	1059.34	1636.1	–
316.66 K	1059.18	1635.4	–
316.91 K	1059.01	1634.6	–
317.16 K	1058.84	1633.9	–
317.4 K	1058.67	1633.2	–
317.66 K	1058.51	1632.4	–
317.91 K	1058.34	1631.7	–
318.15 K	–	–	70.3
318.16 K	1058.17	1630.9	–
318.41 K	1058.01	1630.2	–
318.65 K	1057.84	1629.4	–
318.9 K	1057.67	1628.7	–
319.16 K	1057.51	1628	–
319.41 K	1057.34	1627.2	–
319.65 K	1057.17	1626.5	64.18
319.91 K	1057	1625.7	–
320.16 K	1056.83	1624.9	–
320.41 K	1056.67	1624.2	–
320.65 K	1056.5	1623.4	–
320.91 K	1056.33	1622.7	–
321.15 K	1056.16	1622	–
321.41 K	1056	1621.2	–
321.66 K	1055.83	1620.4	–
321.9 K	1055.66	1619.7	–
322.15 K	1055.49	1618.9	–
322.41 K	1055.32	1618.2	–
322.65 K	1055.15	1617.5	–
